Assay results taken from patent US20250231185A1, “Coronavirus T Cell Epitopes, Megapools and Uses Thereof” (La Jolla Institute for Immunology, priority 2021, published 2025).

Test system: CD8+ T cells
Assay: Meta-analysis of published SARS-CoV-2 CD8 T cell epitope data curated in the IEDB (25 studies)
Assay type: cell-based, human
[1] = CD8-restricted SARS-CoV-2 epitopes, Yes = recognized by 3 or more donors/different studies
[2] = CD8 epitopes, Yes = recognized by 3 or more donors/different studies
[3] = CD8S (D) Megapool, antigen S, dominant = recognized in 3 or more donors/studies
[4] = SARS-CoV-2-derived CD8 epitopes, dominant = recognized by 3 or more donors/different studies

Substance: 1140 (LLYDANYFL) [compound 1140]
- Dominant [1]: Yes (more dominant epitopes are defined by being recognized by 3 or more donors/different studies)

Substance: 426 (KLLEQWNLV) [compound 426]
- Dominant [2]: Yes (more dominant epitopes are defined by being recognized by 3 or more donors/different studies)

Substance: 497 (YYRRATRRIR) [compound 497]
- Dominant [2]: Yes (more dominant epitopes are defined by being recognized by 3 or more donors/different studies)

Substance: 1517 (NLNESLIDL) [compound 1517]
- Dominant [3]: Yes (more dominant epitopes are defined by being recognized by 3 or more donors/different studies)

Substance: 1111 (IVGVALLAVF) [compound 1111]
- Dominant [1]: Yes (more dominant epitopes are defined by being recognized by 3 or more donors/different studies)

Substance: 1251 (LPQGFSAL) [compound 1251]
- Dominant [1]: Yes (more dominant epitopes are defined by being recognized by 3 or more donors/different studies)

Substance: 423 (YVYSRVKNL) [compound 423]
- Dominant [2]: Yes (more dominant epitopes are defined by being recognized by 3 or more donors/different studies)

Substance: 866 (SAFAMMFVK) [compound 866]
- Dominant [4]: Yes (more dominant epitopes are defined by being recognized by 3 or more donors/different studies)

Substance: 1494 (SPRRARSVA) [compound 1494]
- Dominant [3]: Yes (more dominant epitopes are defined by being recognized by 3 or more donors/different studies)

Substance: 1104 (MDLFMRIFTI) [compound 1104]
- Dominant [1]: Yes (more dominant epitopes are defined by being recognized by 3 or more donors/different studies)

Substance: 425 (GTITVEELK) [compound 425]
- Dominant [2]: Yes (more dominant epitopes are defined by being recognized by 3 or more donors/different studies)

Substance: 861 (FLNRFTTTL) [compound 861]
- Dominant [4]: Yes (more dominant epitopes are defined by being recognized by 3 or more donors/different studies)

Substance: 810 (FSAVGNICY) [compound 810]
- Dominant [4]: Yes (more dominant epitopes are defined by being recognized by 3 or more donors/different studies)

Substance: 1500 (TECSNLLLQY) [compound 1500]
- Dominant [3]: Yes (more dominant epitopes are defined by being recognized by 3 or more donors/different studies)

Substance: 852 (VRIQPGQTF) [compound 852]
- Dominant [4]: Yes (more dominant epitopes are defined by being recognized by 3 or more donors/different studies)

Substance: 491 (NTASWFTAL) [compound 491]
- Dominant [2]: Yes (more dominant epitopes are defined by being recognized by 3 or more donors/different studies)

Substance: 471 (TVATSRTLSYYK) [compound 471]
- Dominant [2]: Yes (more dominant epitopes are defined by being recognized by 3 or more donors/different studies)

Substance: 1482 (RISNCVADY) [compound 1482]
- Dominant [3]: Yes (more dominant epitopes are defined by being recognized by 3 or more donors/different studies)

Substance: 1518 (QYIKWPWYI) [compound 1518]
- Dominant [3]: Yes (more dominant epitopes are defined by being recognized by 3 or more donors/different studies)

Substance: 1263 (YYVGYLQPRTF) [compound 1263]
- Dominant [1]: Yes (more dominant epitopes are defined by being recognized by 3 or more donors/different studies)

Substance: 808 (FLPRVFSAV) [compound 808]
- Dominant [4]: Yes (more dominant epitopes are defined by being recognized by 3 or more donors/different studies)

Substance: 1501 (LLQYGSFCT) [compound 1501]
- Dominant [3]: Yes (more dominant epitopes are defined by being recognized by 3 or more donors/different studies)

Substance: 719 (NYMPYFFTL) [compound 719]
- Dominant [4]: Yes (more dominant epitopes are defined by being recognized by 3 or more donors/different studies)

Substance: 1245 (FVFKNIDGY) [compound 1245]
- Dominant [1]: Yes (more dominant epitopes are defined by being recognized by 3 or more donors/different studies)

Substance: 1512 (HLMSFPQSA) [compound 1512]
- Dominant [3]: Yes (more dominant epitopes are defined by being recognized by 3 or more donors/different studies)

Substance: 442 (TLACFVLAAV) [compound 442]
- Dominant [2]: Yes (more dominant epitopes are defined by being recognized by 3 or more donors/different studies)

Substance: 1503 (LTDEMIAQY) [compound 1503]
- Dominant [3]: Yes (more dominant epitopes are defined by being recognized by 3 or more donors/different studies)

Substance: 858 (GTDLEGNFY) [compound 858]
- Dominant [4]: Yes (more dominant epitopes are defined by being recognized by 3 or more donors/different studies)

Substance: 896 (SEFSSLPSY) [compound 896]
- Dominant [4]: Yes (more dominant epitopes are defined by being recognized by 3 or more donors/different studies)

Substance: 494 (NTNSSPDDQIGYY) [compound 494]
- Dominant [2]: Yes (more dominant epitopes are defined by being recognized by 3 or more donors/different studies)

Substance: 1286 (RISNCVADY) [compound 1286]
- Dominant [1]: Yes (more dominant epitopes are defined by being recognized by 3 or more donors/different studies)

Substance: 1296 (KIADYNYKL) [compound 1296]
- Dominant [1]: Yes (more dominant epitopes are defined by being recognized by 3 or more donors/different studies)

Substance: 1228 (TLDSKTQSL) [compound 1228]
- Dominant [1]: Yes (more dominant epitopes are defined by being recognized by 3 or more donors/different studies)

Substance: 1472 (GVYFASTEK) [compound 1472]
- Dominant [3]: Yes (more dominant epitopes are defined by being recognized by 3 or more donors/different studies)

Substance: 745 (AYILFTRFFYV) [compound 745]
- Dominant [4]: Yes (more dominant epitopes are defined by being recognized by 3 or more donors/different studies)

Substance: 1180 (VFITLCFTLK) [compound 1180]
- Dominant [1]: Yes (more dominant epitopes are defined by being recognized by 3 or more donors/different studies)

Substance: 463 (SELVIGAVIL) [compound 463]
- Dominant [2]: Yes (more dominant epitopes are defined by being recognized by 3 or more donors/different studies)

Substance: 1507 (NQKLIANQF) [compound 1507]
- Dominant [3]: Yes (more dominant epitopes are defined by being recognized by 3 or more donors/different studies)

Substance: 1515 (GTHWFVTQR) [compound 1515]
- Dominant [3]: Yes (more dominant epitopes are defined by being recognized by 3 or more donors/different studies)

Substance: 1511 (YHLMSFPQSA) [compound 1511]
- Dominant [3]: Yes (more dominant epitopes are defined by being recognized by 3 or more donors/different studies)

Substance: 1481 (YLQPRTFLL) [compound 1481]
- Dominant [3]: Yes (more dominant epitopes are defined by being recognized by 3 or more donors/different studies)

Substance: 874 (MPASWVMRI) [compound 874]
- Dominant [4]: Yes (more dominant epitopes are defined by being recognized by 3 or more donors/different studies)

Substance: 872 (FLLPSLATV) [compound 872]
- Dominant [4]: Yes (more dominant epitopes are defined by being recognized by 3 or more donors/different studies)

Substance: 1519 (KWPWYIWLGF) [compound 1519]
- Dominant [3]: Yes (more dominant epitopes are defined by being recognized by 3 or more donors/different studies)

Substance: 467 (HLRIAGHHLGR) [compound 467]
- Dominant [2]: Yes (more dominant epitopes are defined by being recognized by 3 or more donors/different studies)

Substance: 437 (NRFLYIIKL) [compound 437]
- Dominant [2]: Yes (more dominant epitopes are defined by being recognized by 3 or more donors/different studies)

Substance: 833 (TFYLTNDVSFL) [compound 833]
- Dominant [4]: Yes (more dominant epitopes are defined by being recognized by 3 or more donors/different studies)

Substance: 1238 (SSANNCTFEY) [compound 1238]
- Dominant [1]: Yes (more dominant epitopes are defined by being recognized by 3 or more donors/different studies)
